Experimental data published in patent US9593305B2, “Differentiation of pluripotent stem cells” (Janssen Biotech, Inc., priority 2008, dated 2017).

These compounds were tested on H1 human embryonic stem cells (assay: Secondary screening with EGF/FGF4 in the absence of activin A (Example 4)). Settings: 2.5 μM compound + 50 ng/ml EGF + 50 ng/ml FGF4, Wnt3a, no activin A, four days.
Assay type: cell-based
Description: Clusters of H1 human embryonic stem cells were grown on reduced growth factor […]™ (Invitrogen; Cat #356231)-coated tissue culture plastic. Cells were passaged using collagenase (Invitrogen; Cat #Cat #17104-019) treatment and gentle scraping, washed to remove residual enzyme, and plated with even dispersal at a ratio of 1:1 (surface area) on reduced growth factor […]™-coated 96-well black plates (Packard ViewPlates; PerkinElmer; Cat #6005182) using volumes of 100 μl/well. Cells were allowed to attach as clusters and then recover log phase growth over a 1 to 3 day period, feeding daily with MEF conditioned medium supplemented with 8 ng/ml bFGF (R&D Systems; Cat #233-FB). Plates were maintained at 37° C., 5% CO2 in a humidified box throughout the duration of assay.
Stock concentrations for EGF (R&D Systems; Cat #236-EG) and FGF4 (R&D Systems; Cat #235-F4) were 250 ng/ml, each solubilized in PBS with 0.1% BSA (Sigma; Cat #A7888). Compounds were available as 5 mM stocks in 96-well plate format, solubilized in 100% DMSO (Sigma; Cat #D2650) and stored at −80° C. The compounds were further diluted to an intermediate concentration of 0.2 mM in 50 mM HEPES (Invitrogen; Cat #15630-080), 20% DMSO and stored at 4° C. All growth factors and inhibitors were prepared in a deep well, 96-well polypropylene plate, diluted to 5× intermediate stocks in DMEM:F12 base medium at the beginning of assay and stored at 4° C.
A secondary screening assay was conducted, testing in triplicate and feeding on alternate days over the four-day assay timeframe. Assays were initiated by aspirating culture medium from each well followed by three washes in PBS to remove residual growth factors and serum. Test volumes of 80 μl per well were added back containing DMEM:F12 base medium (Invitrogen; Cat #11330-032) supplemented with 0.625% FCS (HyClone; Cat #SH30070.03), 25 ng/ml Wnt3a (R&D Systems), and 3.125 μM compound plus 20 μl 5× stock of growth factors to yield a final concentration of 0.5% FCS, 20 ng/ml Wnt3a, and 2.5 μM compound plus 50 ng/ml EGF and 50 ng/ml FGF4 in the assay. Positive control wells (100 μl/well) contained the same base medium supplemented with 0.5% FCS, 20 ng/ml Wnt3a and 100 ng/ml activin A. Negative control wells (100 μl/well) contained the same base medium with 0.5% FCS and 20 ng/ml Wnt3a, omitting activin A.
On day 3, wells were aspirated and fed with 80 μl DMEM:F12 base medium supplemented with 2.5% FCS (HyClone) and 3.125 μM compound plus […] 5× stock of growth factors per well to yield a final concentration of 2% FCS and 2.5 μM compound (omitting Wnt3a) plus 50 ng/ml EGF and FGF4 in the assay. Positive control wells (100 μl/well) contained the same base medium supplemented with 2% FCS and 100 ng/ml activin A, omitting Wnt3a. Negative control wells (100 μl/well) contained the same base medium with 2% FCS, omitting both activin A and Wnt3a.
At the conclusion of four-days of culture, assay plates were washed twice with PBS, fixed with 4% paraformaldehyde (Alexis Biochemical; Cat #ALX-350-011) at room temperature for 20 minutes, then washed three times with PBS and permeabilized with 0.5% Triton X-100 (Sigma; Cat #T8760-2) for 20 minutes at room temperature. Cells were washed again three times with PBS and blocked with 4% chicken serum (Invitrogen; Cat 16110082) in PBS for 30 minutes at room temperature. Primary antibody (goat anti-human SOX17; R&D Systems; cat #AF1924) was diluted 1:100 in 4% chicken serum and added to each well for one hour at room temperature. Alexa Fluor 488 conjugated secondary antibody (chicken anti-goat IgG; Molecular Probes; Cat #AZ1467) was diluted 1:200 in PBS and added to each sample well after washing three times with PBS. To counterstain nuclei, 4 μg/ml Hoechst 33342 (Invitrogen; Cat #H3570) was added for ten minutes at room temperature. Plates were washed once with PBS and left in 100 μl/well PBS for imaging. […]

Q: Which “Cell Number: % of positive control” value does the source give for `O=C1NCCCc2cncc(c2)-c2ncnc(n2)Nc2cccc(c2)CN2CCCC1C2` (centres unmarked) [Compound 17, 3,5,7,14,20,26,31-Heptaazapentacyclo[22.3.1.1-2,6˜1˜8,12˜1˜14,18˜]hentriaconta-1(28), 2(31), 3,5,8(30), 9,11,24,26-nonaen-19-one] here?
A: The value was 114.51 % of positive control.

Q: What about the “Cell Number: Average Total Cell Number” value of the same compound?
A: Its value is 21445.

Q: And the “Sox17 Expression: % of positive control” value?
A: The value was 18.48 % of positive control.

Q: And the “Sox17 Expression: Average Total Intensity” value?
A: The value was 3.43E+07.

Q: How did the “Cell Number: % of positive control” value turn out when `O=C1NCCCc2cncc(c2)-c2ncnc(n2)Nc2cccc(c2)CN2CCC1CC2` [Compound 22, 1,8,10,12,16,22,30-Heptaazapentacyclo[22.2.2.1-3,7˜0.1˜9,13˜1-14,18˜]hentriaconta-3(31), 4,6,9(30), 10,12,14(29), 15,17-nonaen-23-one] was run?
A: The value was 97.91 % of positive control.

Q: And the “Cell Number: Average Total Cell Number” value?
A: The value was 18336.

Q: What about the “Sox17 Expression: % of positive control” value of the same compound?
A: The value was 20.05 % of positive control.

Q: And the “Sox17 Expression: Average Total Intensity” value?
A: The value was 3.72E+07.

Q: With `CN1CCC(=O)NCCCNc2ncccc2-c2ncnc(n2)Nc2cccc(c2)C1` [Compound 39, 9-Methyl-2,3,4,5,7,8,9,10-octahydro-16H-17,21-(azeno)-11,15-(metheno)pyrido[3,2-g][1,3,5,9,13,17]hexaazacyclotricosin-6(1H)-one] as the compound, how does the “Cell Number: % of positive control” value read?
A: The value was 91.28 % of positive control.

Q: What about the “Cell Number: Average Total Cell Number” value of the same compound?
A: Its value is 17095.

Q: And the “Sox17 Expression: % of positive control” value?
A: The value was 15.19 % of positive control.

Q: What about the “Sox17 Expression: Average Total Intensity” value of the same compound?
A: Its value is 2.82E+07.

Q: Which “Cell Number: % of positive control” value does the source give for `O=C1NCCCc2cncc(c2)-c2ncnc(n2)Nc2cc(Cl)cc(c2)CN2CCCC1C2` (centres unmarked) [Compound 37, 10-Chloro-3,5,7,14,20,26,31-heptaazapentacyclo[22.3.1.1˜2,6˜0.1˜8,12˜0.1˜14,18˜]hentriaconta-1(28), 2(31), 3,5,8(30), 9,11,24,26-nonaen-19-one] here?
A: Its value is 83.32 % of positive control.

Q: What about the “Cell Number: Average Total Cell Number” value of the same compound?
A: Its value is 15605.

Q: And the “Sox17 Expression: % of positive control” value?
A: Its value is 14.37 % of positive control.

Q: And the “Sox17 Expression: Average Total Intensity” value?
A: The value was 2.67E+07.

Q: `O=C1CCN2CCN(CC2)Cc2cc(Cl)cc(c2)Nc2ncnc(n2)-c2cncc(c2)CCCN1` [Compound 34, 5-Chloro-1,8,10,12,16,22,26,32-octaazapentacyclo[24.2.2.1˜3.7˜0.1˜9,13˜0.1˜14.18˜]tritriaconta-3(33), 4,6,9(32), 10,12,14(31), 15,17-nonaen-23-one] was tested. Which “Cell Number: % of positive control” value did it give?
A: The value was 100.87 % of positive control.

Q: And the “Cell Number: Average Total Cell Number” value?
A: The value was 18891.

Q: And the “Sox17 Expression: % of positive control” value?
A: The value was 17.55 % of positive control.

Q: What about the “Sox17 Expression: Average Total Intensity” value of the same compound?
A: Its value is 3.26E+07.

Q: Which results are given for `CCN1CCCc2cccc(c2)-c2ncnc(n2)Nc2cccc(c2)CCNC(=O)C1` [Compound 29, 18-Ethyl-3,5,7,15,18,28-hexaazatetracyclo[20.3.1.1˜2,6˜0.1˜8,12˜]octacosa-1(26), 2(28), 3,5,8(27), 9,11,22,24-nonaen-16-one]?
A: Cell Number: % of positive control: 107.97 % of positive control; Cell Number: Average Total Cell Number: 20221; Sox17 Expression: % of positive control: 15.27 % of positive control; Sox17 Expression: Average Total Intensity: 2.83E+07

Same assay, conditions: Table 3B most potent compounds, with EGF + FGF4, no activin A

Q: Which results are given for `CCN1CC(=O)NCCCc2cncc(c2)-c2ncnc(n2)Nc2cc(Cl)cc(c2)C1` [Compound 35, 10-Chloro-14-ethyl-3,5,7,14,17,23,27-heptaazatetracyclo[19.3.1.1˜2,6˜0.1˜8,12]Theptacosa-1(25), 2(27), 3,5,8(26), 9,11,21,23-nonaen-16-one]?
A: Cell Number, % of positive control: 127.20 % of positive control; Sox17 Intensity % of positive control: 13.69 % of positive control
